Blank lines part the entries; values can stand above or below the compound they belong to.
Test system: 276233-004-R-J1-PDC complex spheroid viability
Experiment: Anticancer human tumor 276233-004-R-J1-PDC patient-derived colon adenocarcinoma cell line growth inhibition [GQUAD]
Details: for IC50: curve of first compound; for viability, T/C: stronger effect = lower value
How it was run: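 Tumor cells were grown as complex spheroids with HUVEC endothelial cells and mesenchymal stem cells as stroma. G-quadruplex stabilizers were combined with targeted agents over half-log dilutions from near the clinical Cmax, or from 10 microM.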

[1] = second compound 0.0316 µM, first compound 0.0316 µM
[2] = second compound 0.0316 µM, first compound 0.316 µM
[3] = second compound 0.1 µM, first compound 0.0316 µM
[4] = second compound 0.1 µM, first compound 0.316 µM
[5] = second compound 0.316 µM, first compound 0.0316 µM
[6] = second compound 0.316 µM, first compound 0.316 µM
[7] = second compound 1 µM, first compound 0.0316 µM
[8] = second compound 1 µM, first compound 0.316 µM
[9] = second compound 3.16 µM, first compound 0.0316 µM
[10] = second compound 3.16 µM, first compound 0.316 µM
[11] = second compound 10 µM, first compound 0.0316 µM
[12] = second compound 10 µM, first compound 0.316 µM
[13] = second compound 0.0316 µM, first compound 0.1 µM
[14] = second compound 0.0316 µM, first compound 1 µM
[15] = second compound 0.0316 µM, first compound 3.16 µM
[16] = second compound 0.0316 µM, first compound 10 µM
[17] = second compound 0.1 µM, first compound 0.1 µM
[18] = second compound 0.1 µM, first compound 1 µM
[19] = second compound 0.1 µM, first compound 3.16 µM
[20] = second compound 0.1 µM, first compound 10 µM
[21] = second compound 0.316 µM, first compound 0.1 µM
[22] = second compound 0.316 µM, first compound 1 µM
[23] = second compound 0.316 µM, first compound 3.16 µM
[24] = second compound 0.316 µM, first compound 10 µM
[25] = second compound 1 µM, first compound 0.1 µM
[26] = second compound 1 µM, first compound 1 µM
[27] = second compound 1 µM, first compound 3.16 µM
[28] = second compound 1 µM, first compound 10 µM
[29] = second compound 3.16 µM, first compound 0.1 µM
[30] = second compound 3.16 µM, first compound 1 µM
[31] = second compound 3.16 µM, first compound 3.16 µM
[32] = second compound 3.16 µM, first compound 10 µM
[33] = second compound 10 µM, first compound 0.1 µM
[34] = second compound 10 µM, first compound 1 µM
[35] = second compound 10 µM, first compound 3.16 µM
[36] = second compound 10 µM, first compound 10 µM
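Further: spheroids exposed to drugs for seven days.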
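Wherever viability, T/C is given: 100% = DMSO vehicle control viability.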

Compound: Cc1[nH]c2ccccc2c1CCNCc1ccc(/C=C/C(=O)NO)cc1 + Cc1[nH]c2ccc(F)cc2c1-c1nc2c3cccnc3c3ncccc3c2[nH]1
IC50 (second compound 0.0316 µM): 102 nM | IC50 (second compound 0.1 µM): 72.1 nM | IC50 (second compound 0.316 µM): 45.2 nM | IC50 (second compound 1 µM): 39 nM | IC50 (second compound 3.16 µM): < 0.999 nM | IC50 (second compound 10 µM): < 0.999 nM | viability, T/C (second compound 0.0316 µM, first compound 0.000999 µM): 82.7% | viability, T/C (second compound 0.0316 µM, first compound 0.00316 µM): 100% | viability, T/C (second compound 0.0316 µM, first compound 0.00999 µM): 82.1% | viability, T/C [1]: 96% | viability, T/C (second compound 0.0316 µM, first compound 0.0999 µM): 50.5% | viability, T/C [2]: 13.1% | viability, T/C (second compound 0.1 µM, first compound 0.000999 µM): 76.9% | viability, T/C (second compound 0.1 µM, first compound 0.00316 µM): 84.2% | viability, T/C (second compound 0.1 µM, first compound 0.00999 µM): 62.8% | viability, T/C [3]: 68% | viability, T/C (second compound 0.1 µM, first compound 0.0999 µM): 43.9% | viability, T/C [4]: 10.9% | viability, T/C (second compound 0.316 µM, first compound 0.000999 µM): 64.2% | viability, T/C (second compound 0.316 µM, first compound 0.00316 µM): 62.3% | viability, T/C (second compound 0.316 µM, first compound 0.00999 µM): 46.5% | viability, T/C [5]: 64% | viability, T/C (second compound 0.316 µM, first compound 0.0999 µM): 26.4% | viability, T/C [6]: 32.4% | viability, T/C (second compound 1 µM, first compound 0.000999 µM): 58.9% | viability, T/C (second compound 1 µM, first compound 0.00316 µM): 44.6% | viability, T/C (second compound 1 µM, first compound 0.00999 µM): 65.7% | viability, T/C [7]: 50.8% | viability, T/C (second compound 1 µM, first compound 0.0999 µM): 37.1% | viability, T/C [8]: 7.17% | viability, T/C (second compound 3.16 µM, first compound 0.000999 µM): 18.3% | viability, T/C (second compound 3.16 µM, first compound 0.00316 µM): 15.9% | viability, T/C (second compound 3.16 µM, first compound 0.00999 µM): 21.4% | viability, T/C [9]: 13.6% | viability, T/C (second compound 3.16 µM, first compound 0.0999 µM): 7.05% | viability, T/C [10]: 6.05% | viability, T/C (second compound 10 µM, first compound 0.000999 µM): 35.8% | viability, T/C (second compound 10 µM, first compound 0.00316 µM): 45.9% | viability, T/C (second compound 10 µM, first compound 0.00999 µM): 36.5% | viability, T/C [11]: 39.7% | viability, T/C (second compound 10 µM, first compound 0.0999 µM): 35.3% | viability, T/C [12]: 17.5%

Compound: O=C(NO)c1cnc(N2CCN(S(=O)(=O)c3ccc4ccccc4c3)CC2)nc1 + Cc1[nH]c2ccc(F)cc2c1-c1nc2c3cccnc3c3ncccc3c2[nH]1
IC50 (second compound 0.0316 µM): 427 nM | IC50 (second compound 0.1 µM): 372 nM | IC50 (second compound 0.316 µM): 360 nM | IC50 (second compound 1 µM): 102 nM | IC50 (second compound 3.16 µM): < 31.6 nM | IC50 (second compound 10 µM): < 31.6 nM | viability, T/C [1]: 87.1% | viability, T/C [13]: 86% | viability, T/C [2]: 66.7% | viability, T/C [14]: 2.71% | viability, T/C [15]: 0.44% | viability, T/C [16]: 0.48% | viability, T/C [3]: 83.2% | viability, T/C [17]: 108% | viability, T/C [4]: 57.9% | viability, T/C [18]: 5.03% | viability, T/C [19]: 0.38% | viability, T/C [20]: 0.83% | viability, T/C [5]: 50.4% | viability, T/C [21]: 71.8% | viability, T/C [6]: 56.1% | viability, T/C [22]: 2.35% | viability, T/C [23]: 2.07% | viability, T/C [24]: 0.4% | viability, T/C [7]: 58.8% | viability, T/C [25]: 41.5% | viability, T/C [8]: 42.8% | viability, T/C [26]: 3.96% | viability, T/C [27]: 1.07% | viability, T/C [28]: 0.62% | viability, T/C [9]: 17.4% | viability, T/C [29]: 17% | viability, T/C [10]: 14.8% | viability, T/C [30]: 1.23% | viability, T/C [31]: 1.33% | viability, T/C [32]: 0.42% | viability, T/C [11]: 26.4% | viability, T/C [33]: 26.6% | viability, T/C [12]: 22.1% | viability, T/C [34]: 3.12% | viability, T/C [35]: 1.25% | viability, T/C [36]: 0.61%

IC50 (second compound 0.0316 µM): > 10000 nM | IC50 (second compound 0.1 µM): > 10000 nM | IC50 (second compound 0.316 µM): > 10000 nM | IC50 (second compound 1 µM): > 10000 nM | IC50 (second compound 3.16 µM): 5900 nM | IC50 (second compound 10 µM): > 10000 nM
Compound: CC1COCCN1c1cc(C2(S(C)(=N)=O)CC2)nc(-c2ccnc3[nH]ccc23)n1 (stereo not drawn) + Cc1cnc(CNC(=O)c2c(=O)c3ccc(N4CCCN(C)CC4)nc3n3c2sc2ccccc23)cn1
viability, T/C [1]: 99% | viability, T/C [13]: 72.1% | viability, T/C [2]: 90.8% | viability, T/C [14]: 77.4% | viability, T/C [15]: 75.3% | viability, T/C [16]: 60.2% | viability, T/C [3]: 82% | viability, T/C [17]: 76.5% | viability, T/C [4]: 76% | viability, T/C [18]: 92.6% | viability, T/C [19]: 80.2% | viability, T/C [20]: 64.5% | viability, T/C [5]: 75.2% | viability, T/C [21]: 87.8% | viability, T/C [6]: 83.5% | viability, T/C [22]: 78.2% | viability, T/C [23]: 79.1% | viability, T/C [24]: 58.6% | viability, T/C [7]: 75.8% | viability, T/C [25]: 72.3% | viability, T/C [8]: 72.9% | viability, T/C [26]: 58.7% | viability, T/C [27]: 70.9% | viability, T/C [28]: 53% | viability, T/C [9]: 64.5% | viability, T/C [29]: 67.6% | viability, T/C [10]: 75.4% | viability, T/C [30]: 69.3% | viability, T/C [31]: 57% | viability, T/C [32]: 41.9% | viability, T/C [11]: 63.3% | viability, T/C [33]: 66% | viability, T/C [12]: 73% | viability, T/C [34]: 58.8% | viability, T/C [35]: 65% | viability, T/C [36]: 42.8%

IC50 (second compound 0.0316 µM): 8710 nM | IC50 (second compound 0.1 µM): > 10000 nM | IC50 (second compound 0.316 µM): 4400 nM | IC50 (second compound 1 µM): 2530 nM | IC50 (second compound 3.16 µM): 1770 nM | IC50 (second compound 10 µM): 709 nM
Compound: COc1ccc([C@@H](O)c2cc(-c3ncnc4cc(N5CCOCC5)ccc34)c(F)cc2Cl)nn1 + Cc1cnc(CNC(=O)c2c(=O)c3ccc(N4CCCN(C)CC4)nc3n3c2sc2ccccc23)cn1
viability, T/C [1]: 75.2% | viability, T/C [13]: 81.5% | viability, T/C [2]: 79.3% | viability, T/C [14]: 68.8% | viability, T/C [15]: 60.6% | viability, T/C [16]: 48.4% | viability, T/C [3]: 78.7% | viability, T/C [17]: 73.9% | viability, T/C [4]: 70.2% | viability, T/C [18]: 73.8% | viability, T/C [19]: 69.6% | viability, T/C [20]: 55.1% | viability, T/C [5]: 74.4% | viability, T/C [21]: 87.7% | viability, T/C [6]: 83.9% | viability, T/C [22]: 71% | viability, T/C [23]: 55.1% | viability, T/C [24]: 39.3% | viability, T/C [7]: 73.6% | viability, T/C [25]: 77.9% | viability, T/C [8]: 75.2% | viability, T/C [26]: 63% | viability, T/C [27]: 47.4% | viability, T/C [28]: 33.7% | viability, T/C [9]: 69.2% | viability, T/C [29]: 69.3% | viability, T/C [10]: 70% | viability, T/C [30]: 56.2% | viability, T/C [31]: 43.1% | viability, T/C [32]: 34% | viability, T/C [11]: 65% | viability, T/C [33]: 58.1% | viability, T/C [12]: 70% | viability, T/C [34]: 43.9% | viability, T/C [35]: 43.2% | viability, T/C [36]: 30.9%

From PubChem BioAssay AID2060496 (Molecular Pharmacology Branch, DTP, NCI, 2025)
